Results as given in US4618605A, “Process for the production of β-elemonic acid and pharmaceutical preparations containing said acid” (priority 1983, dated 1986).
Read-outs that look alike come from different tables or passages of the source.

What was measured:
[1] = therapeutic range (therapeutic indices); assay type: in vivo; conditions: for selectivity ratio: in vivo, po
Description: An assessment of the effectiveness of elemonic acid was compared with known substances. A quantitative assessment of β-elemonic acid in comparison with known antiphlogistic substances was made possible by determining the therapeutic ranges, i.e. by the safety with which an active ingredient can be used. […] The therapeutic range is given (1) by the ratio between the LD50 and the ED30 in the CVF paw oedema and (2) by the ratio between the dose threshold value of stomach intolerance and the ED50 in the arthritis model. The ED30 and the ED50 values were determined with the aid of a regression line: […]

[2] = tested on: stomach mucosa; test: induction of stomach ulcers (acute stomach mucous tolerability); assay type: in vivo, Wistar rats; conditions: for Threshold dose Acute stomach mucous tolerability: p.o.; for Effect (ulcer induction): single administration, after 3.5 hours
Description: The most frequent side effect in known anti-rheumatics is poor gastrointestinal tolerance with ulcer induction. For this reason β-elemonic acid was examined for the induction of ulcers. The determination of ulcer formation was made according to W. J. R. Whittle, Brit. J. Pharmacology, 1975, Vol. 55, pp. 242-243; L. Mariani, Europ. J. Toxicol. Eviron., 1975, Vol. 8, pp. 335-39; and R. Menguy and L. Desbaillets, Proc. Soc. Bio., Vol. 125, p. 1108. In the tests, for each dose and control ten male Wistar rats (120-150 g, kept fasting for 16 hours) were used. The provocation of bleeding stomach ulcer took place by oral application of the active ingredient. The animals were sacrificed after 3.5 hours, the stomach removed, opened along the larger curvature and stretched on a foam polystyrene plate. The median ulcer factor of the test group and the control group was determined.

[3] = tested on: adjuvant arthritis; test: adjuvant arthritis test of Pearson, prophylactic application; assay type: in vivo, Wistar rats; conditions: for ED50: Rattus norvegicus, po, 408 h, read-out: ED50 Adjuvant arthritis prophyl.; for antiphlogistic activity (in words): appraisal from ED50 values in the arthritis test; for inhibition values (%): prophylactic
Method: 3. The adjuvant arthritis test of C. M. Pearson, Proc. Soc. Exp. Biol. 91, 95-101 (1956) was carried out as a further relevant animal experiment for the examination of anti-rheumatic substances.
(§1) Ten Wistar rats weighing from 120-150 g were used for each dose. The same number of animals served as a control. Arthritis was induced with 0.5 ml Freud's adjuvant, by subplantar injection. The test lasted 17 days. At the beginning of the test the paw volume of the non-injected hind paw was determined and this was used as a starting value. Further volume measurements were carried out on the 14th and 17th days of the test. For the result the difference between the starting and finishing volumes of the paw, both of the test group and of the control group, was obtained and the inhibition expressed as a percentage. With daily administration from the time of induction of arthritis onwards (prophylactic application) the following inhibition values (%) were obtained: […]

[4] = acute peroral toxicity in the mouse; conditions: in vivo
Method: Determination of toxicity of β-elemonic acid was carried out on the mouse and the rat. Acute peroral toxicity in the mouse: 4.640 mg/kg.

[5] = tested on: CVF paw edema; test: rat paw edema induced by cobra venom factor (CVF); assay type: in vivo; conditions: for ED30: Rattus norvegicus, po, 3 h, read-out: ED30 CVF edema; for Inhibition effect (%): rat, after three hours, vs control group
Method: 2. As a further experiment for testing the antiphlogistic effectiveness there was used rat paw edema induced by means of cobra venom factor (CVF). Since CVF produces inflammation by way of activation of the complementary system, inhibiting substances could open up a new kind of working principle for application in inflammatory illnesses.
Edema was provoked by subplantar injection of CVF (10 units in 1 ml NaCl solution 0.9%) in an amount of 0.1 ml of solution per paw, into one hind paw of each of a number of rats weighing from 120-160 g. After administration of the test substance in a volume of 10 ml/kg body weight the volume of the paw was determined in an overflow device. After three hours the final value was determined. For each dose the test was carried out with five test and five control animals of one sex, and repeated with the same number of animals of the opposite sex. The result was expressed as percentage inhibition of the edema compared with the control group.

[6] = tested on: carrageenin paw edema; test: carrageenin rat paw edema test of Hillebrecht (antiphlogistic effectiveness); assay type: in vivo; conditions: for Inhibiting effect (%): rat, after three hours, vs control group
Method: 1. The antiphlogistic effectiveness was determined by the rat paw edema test of Hillebrecht (J. Hillebrecht, Arzneim, Forsch. 1954, Vol. 4, p. 607). In this test, rats weighing from 120 g-160 g were given a subplantar dose of carrageenin (0.5% in 0.9% NaCl solution) in an amount of 0.1 ml of solution per paw, using one hind paw of each rat, to produce edema. After administration of the test substance, which as a rule should not exceed a volume of 10 ml/kg body weight, the volume of the paw was determined in an overflow device. After three hours the final value was determined. For each dosage level the experiment was performed with five test and five control animals of one sex and repeated with the same number of animals of the opposite sex. The result is expressed as the percentage inhibition of edema as compared with the control group.

[7] = tested on: young rats; test: comparative side-effect investigation with prednisolone on young rats, 8 days; assay type: in vivo, rat; parameters: key: 0: no effect; (-): weak inhibition; -: definite inhibition; ---: very strong inhibition
Method: β-Elemonic acid was compared with prednisolone for determining side-effects. Known antiphlogistic substances can cause undesired side-effects, some of which arise even at therapeutic doses. For this reason a comparative investigation of β-elemonic acid with prednisolone was undertaken (H. J. Lee, M. R. I. Soliman in Science 215 989-991, 1982). Carried out on young rats, the duration of application was 8 days. β-Elemonic acid was administered orally up to a dosage of 316 mg/kg body weight, and prednisolone intramuscularly up to a dosage of 5 mg/kg body weight.

[8] = tested on: adjuvant arthritis; test: adjuvant arthritis test, therapeutic application beginning ten days after induction; assay type: in vivo, Wistar rats; conditions: for inhibition values (%): therapeutic
[9] = tested on: rats; test: dose-range study on rats, daily application for 14 days; assay type: in vivo, rat; conditions: daily for 14 days, 681.0 and 1,000.0 mg/kg body weight
[10] = tested on: adrenal gland; test: adrenal gland weights at termination of the adjuvant arthritis (17-day administration); assay type: in vivo, Wistar rats; conditions: 17-day prophylactic administration
Method: as §1

[11] = LD50 / ED30 in the CVF paw oedema, read-out: Therapeutic index 1 (3./1.)
[12] = rat, dose threshold value of stomach intolerance / ED50 in the arthritis model, read-out: Therapeutic index 2 (4./1.)
[13] = po, Table 9, read-out: LD50 Mouse

COc1ccc2c(c1)c(CC(=O)O)c(C)n2C(=O)c1ccc(Cl)cc1 [Indomethacin, reference compound]
selectivity ratio [1, 11]: 8.73 | selectivity ratio [1, 12]: 21.6 | Threshold dose Acute stomach mucous tolerability [2]: 5.62 mg/kg | ED50 [3]: 0.26 mg/kg | antiphlogistic activity (in words) [3]: strongly active | LD50 [4, 13]: 40 mg/kg | ED30 [5]: 4.58 mg/kg

CCCCC1C(=O)N(c2ccccc2)N(c2ccccc2)C1=O [Phenylbutazone]
Inhibiting effect (%) ([6]; 100 mg/kg p.o.): -41% | reduction of edema (in words) ([6]; carrageenin paw edema test in rats): a reduction of edema only at a fairly high dosage level | inhibition values (%) ([3]; 14th day p.i., 10 mg/kg p.o.): -42% | inhibition values (%) ([3]; 14th day p.i., 31,6 mg/kg p.o.): -57% | inhibition values (%) ([3]; 14th day p.i., 82,5 mg/kg p.o.): -58% | inhibition values (%) ([3]; 17th day p.i., 10 mg/kg p.o.): -31% | inhibition values (%) ([3]; 17th day p.i., 31,6 mg/kg p.o.): -51% | inhibition values (%) ([3]; 17th day p.i., 82,5 mg/kg p.o.): -43% | ED50 ([3]; p.o., regression line): 47.5 mg/kg | antiphlogistic activity (in words) [3]: weakly active | LD50 ([4]; oral, comparison, read-out: LD50): 465 mg/kg | Inhibition effect (%) ([5]; 1 mg/kg p.o.): +10% | Inhibition effect (%) ([5]; 10 mg/kg p.o.): -28% | Inhibition effect (%) ([5]; 100 mg/kg p.o.): -34% | ED30 [5]: 37.7 mg/kg | inhibition of CVF edema (in words) ([5]; compared with β-elemonic acid): weaker inhibition values

C[C@]12C=CC(=O)C=C1CC[C@@H]1[C@@H]2[C@@H](O)C[C@@]2(C)[C@H]1CC[C@]2(O)C(=O)CO [Prednisolone, reference compound]
Blood picture Leucocytes ([7]; 5 mg/kg intramuscularly): - | Blood picture Lymphocytes ([7]; 5 mg/kg intramuscularly): - | Body weight development ([7]; 5 mg/kg intramuscularly): - | Liver weights ([7]; 5 mg/kg intramuscularly): 0 | Thymus weight ([7]; 5 mg/kg intramuscularly): --- | Blood picture Leucocytes ([7]; 2,5 mg/kg intramuscularly): 0 | Blood picture Lymphocytes ([7]; 2,5 mg/kg intramuscularly): (-) | Body weight development ([7]; 2,5 mg/kg intramuscularly): - | Liver weights ([7]; 2,5 mg/kg intramuscularly): 0 | Thymus weight ([7]; 2,5 mg/kg intramuscularly): ---

CC(C)=CCC[C@H](C(=O)O)[C@@H]1CC[C@]2(C)C3=C(CC[C@@]12C)[C@@]1(C)CCC(=O)C(C)(C)[C@@H]1CC3 [β-Elemonic acid, 13α, 14β, 17α, 20S,-3-Oxo-lanosta-8,24-dien-21-carboxylic acid]
selectivity ratio [1, 11]: 1160 | selectivity ratio [1, 12]: 68 | Therapeutic indices 1 and 2 compared with comparison substances (in words) ([1]; vs phenylbutazone and indomethacin): several times higher | Inhibiting effect (%) ([6]; 1 mg/kg p.o.): -7% | Inhibiting effect (%) ([6]; 10 mg/kg p.o.): -21% | Inhibiting effect (%) ([6]; 100 mg/kg p.o.): -33% | inhibition values (%) ([8]; 14th day p.i., 1 mg/kg p.o.): +36% | inhibition values (%) ([8]; 14th day p.i., 10 mg/kg p.o.): -13% | inhibition values (%) ([8]; 14th day p.i., 100 mg/kg p.o.): -38% | inhibition values (%) ([8]; 17th day p.i., 1 mg/kg p.o.): -31% | inhibition values (%) ([8]; 17th day p.i., 10 mg/kg p.o.): -42% | inhibition values (%) ([8]; 17th day p.i., 100 mg/kg p.o.): -81% | inhibition values (in words) ([8]; therapeutic application beginning ten days after induction): pronounced inhibition values | Effect (ulcer induction) ([2]; 10 mg/kg p.o.): 0 | Effect (ulcer induction) ([2]; 100 mg/kg p.o.): 0 | Effect (ulcer induction) ([2]; 316 mg/kg p.o.): 0 | Threshold dose Acute stomach mucous tolerability [2]: 316.00 mg/kg | aggravating side-effects [9]: no occurrences of aggravating side-effects | inhibition values (%) ([3]; 14th day p.i., 1 mg/kg p.o.): -55% | inhibition values (%) ([3]; 14th day p.i., 10 mg/kg p.o.): -62% | inhibition values (%) ([3]; 14th day p.i., 100 mg/kg p.o.): -165% | inhibition values (%) ([3]; 17th day p.i., 1 mg/kg p.o.): -38% | inhibition values (%) ([3]; 17th day p.i., 10 mg/kg p.o.): -47% | inhibition values (%) ([3]; 17th day p.i., 100 mg/kg p.o.): -92% | ED50 [3]: 4.64 mg/kg | Blood picture Leucocytes ([7]; 100 mg/kg orally): 0 | Blood picture Lymphocytes ([7]; 100 mg/kg orally): 0 | Body weight development ([7]; 100 mg/kg orally): (-) | Liver weights ([7]; 100 mg/kg orally): 0 | Thymus weight ([7]; 100 mg/kg orally): 0 | Blood picture Leucocytes ([7]; 316 mg/kg orally): 0 | Blood picture Lymphocytes ([7]; 316 mg/kg orally): 0 | Body weight development ([7]; 316 mg/kg orally): (-) | Liver weights ([7]; 316 mg/kg orally): 0 | Thymus weight ([7]; 316 mg/kg orally): (-) | LD50 [4, 13]: 4640 mg/kg | LD50 ([4]; po, peroral, read-out: Acute peroral toxicity): 4.64 mg/kg | adrenal gland weights [10]: inside the normal limits | Inhibition effect (%) ([5]; 1 mg/kg p.o.): -24% | Inhibition effect (%) ([5]; 10 mg/kg p.o.): -32% | Inhibition effect (%) ([5]; 100 mg/kg p.o.): -49% | ED30 [5]: 3.98 mg/kg
